One series deals with T1, human 5-HT2B receptor (Homo sapiens, UniProt P41595).
T1 construct: expressed in transfected cells; host or cells: HEK-293
Put plainly: Radioligand binding assay, 5-HT2B receptor. The conditions noted are these: radioligand displacement, transfected HEK-293 cells; read-out: Receptor binding affinity (Ki), 5-HT2B. On the procedure: (§1) The affinity of compounds for the human dopamine D2, D3, D4, 5-HT2A, 5-HT2B, 5-HT2C, 5-HT6, 5-HT7, H1, α1A, and α1B receptors in transfected HEK-293 cells was determined using a radioligand binding assay. Cell membrane homogenates were incubated in the absence or presence of the test compound in a buffer. Nonspecific binding was measured in the presence of the standard reference compound. Following incubation, samples were rapidly filtered under a vacuum through glass fibre filters (GF/B, Packard) presoaked with 0.3% PEI and rinsed several times with ice-cold 50 mM Tris-HCl using a 96-sample cell harvester (Unifilter, Packard). Filters were dried and then radioactivity was counted in a scintillation counter (Topcount, Packard) using a scintillation cocktail (Microscint 0, Packard). The results are expressed as percent inhibition of the specific binding of the radioligand in the control. The standard reference compound was tested in each experiment at several concentrations to obtain a competition curve from which its Ki was calculated.
On the technique in general: Loss of bound radioactivity is the signal in a displacement assay; it reports binding, not function.

The next series deals with T2, human 5-HT2C receptor (Homo sapiens, UniProt P28335).
T2 construct: expressed in transfected cells; host or cells: HEK-293
T2 sequence (P28335 33-458): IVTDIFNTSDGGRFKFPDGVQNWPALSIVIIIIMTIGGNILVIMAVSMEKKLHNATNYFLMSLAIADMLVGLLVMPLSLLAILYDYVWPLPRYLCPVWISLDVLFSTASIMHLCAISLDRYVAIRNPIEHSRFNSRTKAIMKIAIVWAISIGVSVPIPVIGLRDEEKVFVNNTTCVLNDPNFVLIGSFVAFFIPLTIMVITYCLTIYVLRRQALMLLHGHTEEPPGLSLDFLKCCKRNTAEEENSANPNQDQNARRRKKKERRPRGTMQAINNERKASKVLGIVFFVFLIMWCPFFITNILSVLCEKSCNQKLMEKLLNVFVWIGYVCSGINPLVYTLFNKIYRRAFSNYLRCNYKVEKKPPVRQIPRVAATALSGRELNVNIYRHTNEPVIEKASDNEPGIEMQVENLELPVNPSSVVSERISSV
Kind of series: Radioligand binding assay, 5-HT2C receptor. The conditions noted are these: radioligand displacement, transfected HEK-293 cells; read-out: Receptor binding affinity (Ki), 5-HT2C. On the procedure:
as §1

The target in a further series is T3, human 5-HT6 receptor (Homo sapiens, UniProt P50406).
T3 construct: expressed in transfected cells; host or cells: HEK-293
Put plainly: Radioligand binding assay, 5-HT6 receptor. The conditions noted are these: radioligand displacement, transfected HEK-293 cells; read-out: Receptor binding affinity (Ki), 5-HT6. On the procedure: as §1

Another series deals with T4, human 5-HT7 receptor (Homo sapiens, UniProt P34969).
T4 construct: expressed in transfected cells; host or cells: HEK-293
Kind of series: Radioligand binding assay, 5-HT7 receptor. The conditions noted are these: radioligand displacement, transfected HEK-293 cells; read-out: Receptor binding affinity (Ki), 5-HT7. The protocol: as §1

A further series has as its target T5, human α1B receptor (Homo sapiens, UniProt P35368).
T5 construct: expressed in transfected cells; host or cells: HEK-293
T5 sequence (P35368 1-520): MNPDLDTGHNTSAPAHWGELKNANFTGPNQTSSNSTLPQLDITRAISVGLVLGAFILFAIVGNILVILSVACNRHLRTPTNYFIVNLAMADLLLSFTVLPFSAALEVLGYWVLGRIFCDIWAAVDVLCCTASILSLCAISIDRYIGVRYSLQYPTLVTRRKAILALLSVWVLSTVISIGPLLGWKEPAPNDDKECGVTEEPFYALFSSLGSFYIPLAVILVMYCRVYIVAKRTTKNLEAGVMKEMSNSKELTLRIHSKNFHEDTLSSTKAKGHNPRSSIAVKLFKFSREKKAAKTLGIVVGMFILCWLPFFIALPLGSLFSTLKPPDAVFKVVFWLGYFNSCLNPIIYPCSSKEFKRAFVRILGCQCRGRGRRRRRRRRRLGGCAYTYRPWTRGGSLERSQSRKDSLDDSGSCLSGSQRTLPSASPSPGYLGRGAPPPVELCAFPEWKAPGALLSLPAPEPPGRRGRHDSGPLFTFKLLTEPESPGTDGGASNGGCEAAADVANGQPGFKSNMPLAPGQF
Put plainly: Radioligand binding assay, α1B receptor. The settings on record: radioligand displacement, transfected HEK-293 cells; read-out: Receptor binding affinity (Ki), α1B. On the procedure: as §1

The target in the next series is T6, human H1 receptor (Homo sapiens, UniProt P35367).
T6 construct: expressed in transfected cells; host or cells: HEK-293
Put plainly: Radioligand binding assay, H1 receptor. The settings on record: radioligand displacement, transfected HEK-293 cells; read-out: Receptor binding affinity (Ki), H1. On the procedure:
as §1

Series [1] concerns MK-801-induced locomotor hyperactivity in rats. Put plainly: Inhibition of MK-801-induced hyperactivity. In kind it is in vivo, SD rats. The conditions noted are these: mean ± S.E.M.; for distance travelled: MK-801 0.3 mg/kg i.p. The protocol: […]. […] Animals were returned to the activity chambers after the intraperitoneal injection, and locomotor activity as quantitated as the distance travelled (mm) was recorded for 10 to 20 minutes using the TopScan monitoring system. At the end of each trial, the faecal boli were cleaned to avoid the potential influence of intramaze cues (odour trails, etc.) on the rats[36].

Series [2] deals with 5-HTP-induced head twitches in rats. Put plainly: 5-HTP-induced head twitch. In kind it is in vivo, SD rats. The settings on record: 5-HTP 320 mg/kg i.p., 40–70 min after injection, mean ± S.E.M. On the procedure:
SD rats (200–250 g, 8 animals/ group) were housed in the test room for at least 1 h before the experiment. […] Then, all animals were intraperitoneally injected with 0.9% saline or 5-HTP (320 mg/kg) 40 min before the test. The number of head twitches was recorded during a period of 40–70 min after intraperitoneal injection.

The test system of another series is MK-801-treated rats. Put plainly: Morris water maze test, subchronic administration, MK-801-treated rats. The settings on record: MK-801 0.3 mg/kg i.p. day 15–28, mean ± S.E.M. The series is classed as in vivo, SD rats. The protocol:
The MWM test was started after the last injection. Each rat was trained in 4 trials per day for 5 consecutive days. The escape latency to find the submerged escape platform in the water maze was recorded with the TopScan monitoring system. Each training session lasted for a maximum of 60 s. If the escape latency exceeded 60 s, it was recorded as 60 s and the rat was manually guided to the platform. On day 6, the platform was removed and each rat was allowed to swim freely for 60 s.

The subject of a further series is mice. Put plainly: Forelimb catalepsy in mice. The settings on record: NIH, mouse, in vivo, po, 1 h. On the procedure: Then each mouse was positioned such that both front paws rested on a […] diameter steel rod (covered with non-slippery tape) placed 3.5 cm above the surface of the bench. The period of time that each mouse maintained this position was recorded. The experiment was repeated at least 10 times. Finally, the longest period of catalepsy for each mouse was recorded.

The record followed here is paper PMC5931996 (Scientific Reports, 2018).

SMILES strings stand for the structures.

Usually Ki stands for the equilibrium dissociation constant of an inhibitor or competing ligand from its target.

T6 sequence (P35367 whole entry): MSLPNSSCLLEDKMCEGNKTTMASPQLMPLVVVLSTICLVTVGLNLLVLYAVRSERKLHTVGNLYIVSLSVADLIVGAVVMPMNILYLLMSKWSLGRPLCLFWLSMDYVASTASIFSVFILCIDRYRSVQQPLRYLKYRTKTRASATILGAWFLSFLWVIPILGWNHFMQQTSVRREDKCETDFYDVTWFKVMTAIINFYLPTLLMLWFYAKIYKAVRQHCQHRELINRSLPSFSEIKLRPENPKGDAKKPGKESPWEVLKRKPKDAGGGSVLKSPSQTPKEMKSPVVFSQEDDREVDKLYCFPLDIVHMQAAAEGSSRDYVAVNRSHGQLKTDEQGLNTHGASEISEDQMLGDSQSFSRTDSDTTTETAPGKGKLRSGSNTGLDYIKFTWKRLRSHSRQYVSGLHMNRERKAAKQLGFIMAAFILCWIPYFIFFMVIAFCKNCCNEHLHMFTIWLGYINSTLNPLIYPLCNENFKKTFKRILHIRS
T4 sequence (P34969 whole entry): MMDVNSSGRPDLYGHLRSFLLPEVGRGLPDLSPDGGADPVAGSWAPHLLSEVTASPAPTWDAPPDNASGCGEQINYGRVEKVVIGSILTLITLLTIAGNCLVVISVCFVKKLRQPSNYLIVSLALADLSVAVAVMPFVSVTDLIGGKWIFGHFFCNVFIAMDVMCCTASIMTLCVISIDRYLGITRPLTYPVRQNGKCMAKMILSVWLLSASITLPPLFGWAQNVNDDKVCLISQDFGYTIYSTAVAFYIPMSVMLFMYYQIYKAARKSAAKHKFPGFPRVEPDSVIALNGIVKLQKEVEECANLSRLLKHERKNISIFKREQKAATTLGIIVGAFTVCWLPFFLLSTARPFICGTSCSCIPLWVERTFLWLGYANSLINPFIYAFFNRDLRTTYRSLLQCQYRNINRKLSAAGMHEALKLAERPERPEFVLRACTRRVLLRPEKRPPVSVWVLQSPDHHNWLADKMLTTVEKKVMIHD
T1 sequence (P41595 whole entry): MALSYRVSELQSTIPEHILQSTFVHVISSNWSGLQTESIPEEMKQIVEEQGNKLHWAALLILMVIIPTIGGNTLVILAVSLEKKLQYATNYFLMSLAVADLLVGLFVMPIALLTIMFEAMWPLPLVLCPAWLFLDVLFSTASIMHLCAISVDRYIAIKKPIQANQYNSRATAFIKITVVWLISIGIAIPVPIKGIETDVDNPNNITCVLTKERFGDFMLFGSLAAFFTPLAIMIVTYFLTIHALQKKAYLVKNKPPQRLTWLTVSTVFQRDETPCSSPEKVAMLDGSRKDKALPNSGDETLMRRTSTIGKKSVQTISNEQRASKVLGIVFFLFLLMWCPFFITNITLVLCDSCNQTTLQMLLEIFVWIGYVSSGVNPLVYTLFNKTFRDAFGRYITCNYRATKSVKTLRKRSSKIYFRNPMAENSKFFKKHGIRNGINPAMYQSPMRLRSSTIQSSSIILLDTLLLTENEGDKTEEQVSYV
T3 sequence (P50406 whole entry): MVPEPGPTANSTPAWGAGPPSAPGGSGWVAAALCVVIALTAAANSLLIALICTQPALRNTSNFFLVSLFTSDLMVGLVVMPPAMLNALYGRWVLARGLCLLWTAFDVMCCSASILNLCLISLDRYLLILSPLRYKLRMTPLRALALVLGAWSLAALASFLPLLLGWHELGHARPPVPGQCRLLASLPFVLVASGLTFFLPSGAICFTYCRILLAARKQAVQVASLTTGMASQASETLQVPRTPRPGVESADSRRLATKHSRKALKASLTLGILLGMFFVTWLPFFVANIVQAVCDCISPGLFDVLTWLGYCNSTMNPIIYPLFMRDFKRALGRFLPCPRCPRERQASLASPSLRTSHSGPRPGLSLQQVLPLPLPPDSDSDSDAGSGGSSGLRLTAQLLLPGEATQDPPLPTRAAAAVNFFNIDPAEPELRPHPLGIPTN

Turning to `O=C1COc2ccc(OCCCCN3CCN(c4cccc(Cl)c4Cl)CC3)cc2N1` [PCC0104005], the inhibition constant (Ki) on human 5-HT2B receptor was determined as 0.34 nM; at human 5-HT2C receptor, 36 nM; on human 5-HT6 receptor, 85 nM; on human 5-HT7 receptor, 5 nM; on human α1B receptor, 3.2 nM; at human H1 receptor it was 1.1 nM. Moreover, the distance travelled in series [1] (3.0 mg/kg oral 1 h before test) came to 2646 ± 235.2 mm; in [1] (6.0 mg/kg oral 1 h before test), 2655 ± 286.5 mm; in series [1] ([…] oral 1 h before test) it was 3284 ± 220.7 mm. The “distance travelled (spontaneous activity)” value in series [1] (administered alone without MK-801, dose not stated) came out at 1885 ± 269.7 mm. Further, the “number of head twitches” value is reported as 24.86 ± 4.35 in series [2] (3.0 mg/kg oral 1 h before test), 10.71 ± 4.81 in series [2] (6.0 mg/kg oral 1 h before test) and 20.17 ± 2.70 in series [2] ([…] oral 1 h before test). Moreover, the escape latency is on record as 11.45 ± 2.70 s with MK-801-treated rats (3.0 mg/kg oral for 28 days) and 14.88 ± 2.95 s in the series with MK-801-treated rats (6.0 mg/kg oral for 28 days). Besides, the “forelimb catalepsy duration (longest)” value with mice (2 mg/kg) worked out at 22.56 ± 2.65 s; in the series on mice (4 mg/kg), 25.89 ± 3.59 s; in the series with mice (8 mg/kg) it was 21.23 ± 2.53 s.
